Data on four compounds can be found in PubChem BioAssay AID378.

The target of the experiment is L-aminoadipate-semialdehyde dehydrogenase-phosphopantetheinyl transferase (Homo sapiens) (UniProt Q9NRN7). Description: PubChem AID 378. To be noted: purified protein DSF, SYPRO orange Tm shift, at 10 µM, protein 2 µM, pH 5.5, active compounds read high.
Where [1] appears, read: buffer 10 mM NaHPO4, with 150 mM NaCl, 2 mM MgCl2.
The mark [2] stands for this setting: buffer 10 mM NaH2PO4, NaCl 150 mM, MgCl2 2000 µM.

L-aminoadipate-semialdehyde dehydrogenase-phosphopantetheinyl transferase (Homo sapiens), sequence (Q9NRN7 whole entry, looked up): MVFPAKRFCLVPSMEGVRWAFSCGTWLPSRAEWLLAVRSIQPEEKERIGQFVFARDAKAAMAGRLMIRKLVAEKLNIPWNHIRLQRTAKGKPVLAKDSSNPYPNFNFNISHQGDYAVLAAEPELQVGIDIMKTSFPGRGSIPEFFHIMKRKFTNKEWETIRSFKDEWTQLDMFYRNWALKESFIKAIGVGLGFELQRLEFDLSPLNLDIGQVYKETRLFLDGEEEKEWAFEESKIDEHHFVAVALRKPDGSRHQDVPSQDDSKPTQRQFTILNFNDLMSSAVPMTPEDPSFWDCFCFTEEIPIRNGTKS

With `O=[P+](O)C(O)(Cc1cccnc1)P(=O)(O)O` (centres undefined), the Tm shift under setting [1] is 4.4 Celsius.

For the compound `CC(C)(COP(=O)(O)OP(=O)(O)OCC1OC(n2cnc3c(N)ncnc32)C(O)C1OP(=O)(O)O)C(O)C(=O)NCCC(=O)NCCS` (centres undefined), under setting [2], the Tm shift is 2.9 Celsius.

For the compound `CC(O)CC(=O)SCCNC(=O)CCNC(=O)C(O)C(C)(C)COP(=O)(O)OP(=O)(O)OCC1OC(n2cnc3c(N)ncnc32)C(O)C1OP(=O)(O)O` (centres undefined), the Tm shift under setting [2] was 3.1 Celsius. `O=P(O)(O)C(O)(Cn1ccnc1)P(=O)(O)O`: under setting [1], the Tm shift is 5.2 Celsius.
